The target of one test is T1, recombinant human sEH (Homo sapiens, UniProt P34913).
T1 sequence (P34913 1-555): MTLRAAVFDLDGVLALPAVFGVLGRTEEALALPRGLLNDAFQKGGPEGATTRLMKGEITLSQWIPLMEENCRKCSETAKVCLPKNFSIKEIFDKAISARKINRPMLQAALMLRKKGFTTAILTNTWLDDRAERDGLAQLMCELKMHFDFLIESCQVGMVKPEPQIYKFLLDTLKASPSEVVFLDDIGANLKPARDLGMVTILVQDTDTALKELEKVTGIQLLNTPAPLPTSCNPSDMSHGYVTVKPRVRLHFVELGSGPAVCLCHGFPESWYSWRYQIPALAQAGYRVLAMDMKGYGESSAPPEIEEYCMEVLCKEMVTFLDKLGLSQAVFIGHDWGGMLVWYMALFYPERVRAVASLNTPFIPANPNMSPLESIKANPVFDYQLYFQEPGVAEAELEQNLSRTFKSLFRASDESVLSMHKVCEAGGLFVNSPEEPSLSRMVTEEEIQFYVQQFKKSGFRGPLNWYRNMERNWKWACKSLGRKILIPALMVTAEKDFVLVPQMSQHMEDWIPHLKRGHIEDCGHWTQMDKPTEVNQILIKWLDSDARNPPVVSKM
Nature of the test: Human soluble epoxide hydrolase inhibition, fluorescence-based assay (CMNPC substrate). The conditions noted are these: recombinant human sEH; average of three replicates; read-out: hsEH IC50. The format is biochemical.

The target in the next test is T2, recombinant human AChE (Homo sapiens, UniProt P22303).
T2 construct: purchased Sigma-Aldrich, Milan, Italy
The format is biochemical. The conditions noted are these: recombinant human AChE; mean ± SEM; read-out: hAChE IC50.

The target in a further test is T3, human serum BChE (Homo sapiens, UniProt P06276).
T3 construct: human serum BChE (Sigma-Aldrich, Milan, Italy) was assessed by Ellman’s method; purchased Sigma-Aldrich, Milan, Italy; host or cells: human serum
The format is biochemical.

The target of a further test is T4, recombinant mouse sEH (Mus musculus, UniProt P34914).
T4 sequence (P34914 1-554): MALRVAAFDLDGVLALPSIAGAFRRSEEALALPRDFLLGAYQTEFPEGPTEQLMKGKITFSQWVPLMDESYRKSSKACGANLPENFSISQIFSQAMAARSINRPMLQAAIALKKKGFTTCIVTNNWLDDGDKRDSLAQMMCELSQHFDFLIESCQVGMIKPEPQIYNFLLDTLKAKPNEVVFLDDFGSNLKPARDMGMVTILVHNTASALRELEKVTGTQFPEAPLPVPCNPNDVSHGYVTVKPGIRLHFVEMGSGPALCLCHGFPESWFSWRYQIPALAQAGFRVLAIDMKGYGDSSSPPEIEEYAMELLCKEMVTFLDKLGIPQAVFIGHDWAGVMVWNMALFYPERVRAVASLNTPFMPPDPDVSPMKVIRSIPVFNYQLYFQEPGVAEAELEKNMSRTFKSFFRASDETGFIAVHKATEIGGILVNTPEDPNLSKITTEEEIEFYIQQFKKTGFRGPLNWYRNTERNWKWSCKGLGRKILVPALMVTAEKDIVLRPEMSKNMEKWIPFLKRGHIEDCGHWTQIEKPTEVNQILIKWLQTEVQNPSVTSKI
The conditions noted are these: read-out: msEH IC50, average of three replicates.

T3 sequence (P06276 29-602): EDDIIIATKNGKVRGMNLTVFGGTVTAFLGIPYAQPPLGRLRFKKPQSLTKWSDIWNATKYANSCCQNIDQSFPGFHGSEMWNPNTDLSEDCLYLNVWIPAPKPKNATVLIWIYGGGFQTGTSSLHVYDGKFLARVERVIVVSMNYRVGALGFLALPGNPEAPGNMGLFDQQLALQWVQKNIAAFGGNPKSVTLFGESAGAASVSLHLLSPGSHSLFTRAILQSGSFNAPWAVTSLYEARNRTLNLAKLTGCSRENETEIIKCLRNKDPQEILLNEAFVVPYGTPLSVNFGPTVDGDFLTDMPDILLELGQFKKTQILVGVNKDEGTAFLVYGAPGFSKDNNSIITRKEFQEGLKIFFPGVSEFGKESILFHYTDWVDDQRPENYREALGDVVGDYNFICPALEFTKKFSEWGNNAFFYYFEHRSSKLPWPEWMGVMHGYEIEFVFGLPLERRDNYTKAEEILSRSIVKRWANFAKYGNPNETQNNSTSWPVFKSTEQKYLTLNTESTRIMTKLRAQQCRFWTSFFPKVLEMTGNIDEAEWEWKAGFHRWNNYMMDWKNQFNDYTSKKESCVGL
T2 sequence (P22303 32-614): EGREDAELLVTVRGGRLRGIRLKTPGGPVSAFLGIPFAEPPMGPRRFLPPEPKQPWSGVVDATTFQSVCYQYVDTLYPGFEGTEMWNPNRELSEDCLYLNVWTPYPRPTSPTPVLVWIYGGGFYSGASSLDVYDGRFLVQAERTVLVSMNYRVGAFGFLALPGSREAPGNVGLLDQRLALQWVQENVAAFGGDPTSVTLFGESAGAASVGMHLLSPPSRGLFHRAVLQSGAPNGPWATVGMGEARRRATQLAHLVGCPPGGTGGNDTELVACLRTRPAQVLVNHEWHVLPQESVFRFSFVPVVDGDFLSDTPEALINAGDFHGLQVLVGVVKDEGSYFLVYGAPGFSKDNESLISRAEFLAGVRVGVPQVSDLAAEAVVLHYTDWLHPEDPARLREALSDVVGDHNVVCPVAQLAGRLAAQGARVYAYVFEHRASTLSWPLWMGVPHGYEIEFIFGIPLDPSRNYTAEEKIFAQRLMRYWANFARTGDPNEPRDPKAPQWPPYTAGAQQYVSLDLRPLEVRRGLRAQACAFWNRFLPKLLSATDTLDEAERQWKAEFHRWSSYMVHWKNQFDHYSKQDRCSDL
Procedure for human serum BChE: (§1) Human and mouse acetylcholinesterase and human butyrylcholinesterase inhibition
(§2) assay. The inhibitory activity of the target compounds toward recombinant human AChE
(§3) (Sigma-Aldrich, Milan, Italy), recombinant mouse AChE (Bio-Techne, Milan, Italy) and
(§4) human serum BChE (Sigma-Aldrich, Milan, Italy) was assessed by Ellman’s method,8 using
(§5) Stock solutions of the AChEs were prepared by
(§6) dissolving enzyme lyophilized powder (hAChE) or diluting the enzyme commercial solution
(§7) (mAChE) in 0.1 M potassium phosphate (pH 8.0) containing 0.1% Triton X-100, whereas the
(§8) stock solution of hBChE was prepared in 0.1% aq. gelatin and the stock solutions of the
(§9) compounds to be tested were made in MeOH (2-4 mM). The assay solution consisted of 0.02
(§10) unit mL‒1 of the enzyme, 340 M 5,5’-dithiobis(2-nitrobenzoic acid), and 550 M of the
(§11) substrate acetylthiocholine iodide (for AChE assay) or butyrylthiocholine iodide (for BChE
(§12) assay) in 0.1 M potassium phosphate (pH 8.0). Blank solutions containing all components
(§13) except the enzymes were prepared to account for the non-enzymatic hydrolysis of the
(§14) Prior the addition of the substrate, the assay solutions were incubated at 37 °C for 20 min.
(§15) After the addition of the substrate, cuvettes were rapidly transferred into a Jasco V-530
(§16) double beam spectrophotometer equipped with thermostated cuvette holders (37 °C), in order
(§17) for 240 s. For each tested compound, five increasing concentrations were assayed in order to
(§18) achieve inhibition percentages of 20‒80%. Each concentration was assayed in triplicate. IC50
(§19) values were calculated from the inhibition plot (% inhibition vs log[inhibitor]) and are
(§20) expressed as mean ± SEM. Each IC50 value is the average of at least two experiments, each
Procedure for recombinant human AChE: as §1, §2, §3, §4, §5, §6, §7, §8, §9, §10, §11, §12, §13, §14, §15, §16, §17, §18, §19, §20
Procedure for recombinant human sEH: (§21) Human and mouse soluble epoxide hydrolase inhibition assay. The inhibitory activity of
(§22) the target compounds toward human and mouse sEH was determined by a fluorescence-based
(§23) assay, using purified recombinant human or mouse sEH proteins and CMNPC as a fluorescent
(§24) substrate.6 The enzymes were incubated at 30 °C with the inhibitors ([I]final = 0.4-100,000
(§25) nM) for 5 min in 100 mM sodium phosphate buffer (200 µL, pH 7.4) containing 0.1 mg mL‒1
(§26) of BSA and 1% of DMSO. The substrate (CMNPC) was then added ([S]final = 5 µM). Activity
(§27) was assessed by measuring the appearance of the fluorescent 6-methoxynaphthaldehyde
(§28) (Molecular Devices). Results were obtained by regression analysis from a linear region of the
(§29) curve and are given as IC50 values, i.e., the concentration of the compound that reduces the
(§30) sEH activity by 50%. All measurements were performed in triplicate and the mean is
Procedure for recombinant mouse sEH: as §21, §22, §23, §24, §25, §26, §27, §28, §29, §30

One may read the IC50 as the midpoint of a concentration-inhibition curve. For the compound `O=C(Nc1ccc(OC(F)(F)F)cc1)NC1CCN(C(=O)CCCCNc2c3c(nc4cc(Cl)ccc24)CCCC3)CC1` [12c, 1-{1-{5-[(6-Chloro-1,2,3,4-tetrahydroacridin-9-yl)amino]pentanoyl}piperidin-4-yl}-3-[4-(trifluoromethoxy)phenyl]urea], the IC50 at recombinant human sEH was 4.6 nM; on recombinant human AChE it was 12.9 ± 1.6 nM; at human serum BChE (human serum BChE, mean ± SEM, n.a. = not active, % inhibition <10% at 100 μM, read-out: hBChE IC50) it was 179 ± 90 nM; on recombinant mouse sEH, 22.5 nM. Also, the “hBChE potency relative to 6-chlorotacrine” value on human serum BChE was 3 fold.

The record behind these values is PMC8958510 (Journal of Medicinal Chemistry, 2022).
